Reference: ChEMBL document CHEMBL4507259 (2021)

Legend:
[1] = target: Serine/threonine-protein kinase WNK2 (Homo sapiens) (UniProt Q9Y3S1); conditions: Compound concentration 1000.0 nM
[2] = target: Macrophage colony-stimulating factor 1 receptor (Homo sapiens) (UniProt P07333); conditions: Compound concentration 1000.0 nM
[3] = target: Serine/threonine-protein kinase PLK4 (Homo sapiens) (UniProt O00444); conditions: Compound concentration 1000.0 nM
[4] = test system: Receptor-type tyrosine-protein kinase FLT3 (Homo sapiens), P36888 [D835Y]; conditions: Compound concentration 1000.0 nM
[5] = target: Serine/threonine-protein kinase PAK 5 (Homo sapiens) (UniProt Q9P286); conditions: Compound concentration 1000.0 nM
[6] = target: Ribosomal protein S6 kinase alpha-2 (Homo sapiens) (UniProt Q15349); conditions: Compound concentration 1000.0 nM
[7] = target: Sigma intracellular receptor 2 (Homo sapiens, UniProt Q5BJF2); assay: GPCRScan assay: inhibition of Sigma 2; parameters: radioligand conc. used [nm] 5.0, parental cells HEKT
Sequence of Sigma intracellular receptor 2 (Q5BJF2 whole entry): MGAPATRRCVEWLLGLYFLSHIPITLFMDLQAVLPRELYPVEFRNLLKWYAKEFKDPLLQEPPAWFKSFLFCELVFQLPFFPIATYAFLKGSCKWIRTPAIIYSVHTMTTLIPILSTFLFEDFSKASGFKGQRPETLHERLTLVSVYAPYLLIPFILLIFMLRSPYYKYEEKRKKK

[8] = target: Calcium/calmodulin-dependent protein kinase type 1G (Homo sapiens) (UniProt Q96NX5); conditions: Compound concentration 1000.0 nM
[9] = test system: Epidermal growth factor receptor (Homo sapiens), P00533 [UNDEFINED MUTATION]; conditions: Compound concentration 1000.0 nM
[10] = target: Leucine-rich repeat serine/threonine-protein kinase 2 (Homo sapiens) (UniProt Q5S007); conditions: Compound concentration 1000.0 nM
[11] = target: Casein kinase I isoform delta (Homo sapiens) (UniProt P48730); conditions: Compound concentration 1000.0 nM
[12] = target: Aurora kinase C (Homo sapiens) (UniProt Q9UQB9); conditions: Compound concentration 1000.0 nM
[13] = target: Ribosomal protein S6 kinase alpha-5 (Homo sapiens) (UniProt O75582); conditions: Compound concentration 1000.0 nM
[14] = target: Bone morphogenetic protein receptor type-1B (Homo sapiens) (UniProt O00238); conditions: Compound concentration 1000.0 nM
[15] = test system: Proto-oncogene tyrosine-protein kinase receptor Ret (Homo sapiens), P07949 [M918T]; conditions: Compound concentration 1000.0 nM
[16] = target: Ephrin type-B receptor 6 (Homo sapiens) (UniProt O15197); conditions: Compound concentration 1000.0 nM
[17] = target: Sulfonylurea receptors; K-ATP channels (Homo sapiens) (UniProt Q14654+O60706+Q09428+Q15842); assay: KATP channel CEREP ligand profiling; format: protein-complex assay; conditions: filed as antagonist; Compound concentration 10.0 uM
Sequence of Sulfonylurea receptors; K-ATP channels (Homo sapiens) (O60706 whole entry, looked up): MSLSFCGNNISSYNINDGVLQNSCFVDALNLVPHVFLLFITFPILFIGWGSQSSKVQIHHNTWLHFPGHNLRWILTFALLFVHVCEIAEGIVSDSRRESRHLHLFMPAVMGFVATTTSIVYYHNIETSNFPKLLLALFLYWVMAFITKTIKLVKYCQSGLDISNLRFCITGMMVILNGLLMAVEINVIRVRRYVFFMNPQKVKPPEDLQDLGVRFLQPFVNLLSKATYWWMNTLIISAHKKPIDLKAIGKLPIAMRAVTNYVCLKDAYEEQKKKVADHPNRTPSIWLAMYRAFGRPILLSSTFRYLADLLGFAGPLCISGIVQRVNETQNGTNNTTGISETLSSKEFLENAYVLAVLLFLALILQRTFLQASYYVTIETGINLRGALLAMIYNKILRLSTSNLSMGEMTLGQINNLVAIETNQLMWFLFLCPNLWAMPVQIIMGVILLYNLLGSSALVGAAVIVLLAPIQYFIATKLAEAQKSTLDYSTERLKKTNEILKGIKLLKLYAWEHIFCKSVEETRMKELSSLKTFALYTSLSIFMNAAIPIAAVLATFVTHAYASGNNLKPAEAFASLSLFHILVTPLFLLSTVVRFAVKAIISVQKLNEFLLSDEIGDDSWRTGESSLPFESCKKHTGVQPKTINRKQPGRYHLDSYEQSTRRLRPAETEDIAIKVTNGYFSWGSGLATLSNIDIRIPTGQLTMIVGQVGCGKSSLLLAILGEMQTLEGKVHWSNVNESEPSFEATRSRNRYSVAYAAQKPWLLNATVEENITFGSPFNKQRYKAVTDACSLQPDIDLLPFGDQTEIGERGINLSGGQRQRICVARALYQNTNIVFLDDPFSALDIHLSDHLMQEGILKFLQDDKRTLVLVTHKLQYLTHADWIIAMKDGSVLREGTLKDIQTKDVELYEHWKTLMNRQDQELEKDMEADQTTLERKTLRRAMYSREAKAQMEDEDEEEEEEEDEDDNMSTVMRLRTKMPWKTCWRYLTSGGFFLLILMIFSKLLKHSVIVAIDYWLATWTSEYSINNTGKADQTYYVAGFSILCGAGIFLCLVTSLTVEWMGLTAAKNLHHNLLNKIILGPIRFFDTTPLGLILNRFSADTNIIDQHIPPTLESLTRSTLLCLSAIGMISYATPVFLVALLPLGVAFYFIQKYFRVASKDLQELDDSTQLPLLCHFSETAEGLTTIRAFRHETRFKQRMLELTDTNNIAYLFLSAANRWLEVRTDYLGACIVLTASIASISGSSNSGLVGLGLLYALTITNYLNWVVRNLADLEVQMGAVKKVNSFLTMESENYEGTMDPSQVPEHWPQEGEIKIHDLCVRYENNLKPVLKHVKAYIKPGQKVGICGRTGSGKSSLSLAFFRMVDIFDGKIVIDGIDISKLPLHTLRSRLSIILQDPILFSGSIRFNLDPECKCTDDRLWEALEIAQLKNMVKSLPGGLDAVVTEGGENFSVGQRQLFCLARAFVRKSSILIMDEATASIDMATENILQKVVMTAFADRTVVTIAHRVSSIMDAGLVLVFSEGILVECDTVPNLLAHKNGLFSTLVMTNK
Sequence of Sulfonylurea receptors; K-ATP channels (Homo sapiens) (Q09428 whole entry, looked up): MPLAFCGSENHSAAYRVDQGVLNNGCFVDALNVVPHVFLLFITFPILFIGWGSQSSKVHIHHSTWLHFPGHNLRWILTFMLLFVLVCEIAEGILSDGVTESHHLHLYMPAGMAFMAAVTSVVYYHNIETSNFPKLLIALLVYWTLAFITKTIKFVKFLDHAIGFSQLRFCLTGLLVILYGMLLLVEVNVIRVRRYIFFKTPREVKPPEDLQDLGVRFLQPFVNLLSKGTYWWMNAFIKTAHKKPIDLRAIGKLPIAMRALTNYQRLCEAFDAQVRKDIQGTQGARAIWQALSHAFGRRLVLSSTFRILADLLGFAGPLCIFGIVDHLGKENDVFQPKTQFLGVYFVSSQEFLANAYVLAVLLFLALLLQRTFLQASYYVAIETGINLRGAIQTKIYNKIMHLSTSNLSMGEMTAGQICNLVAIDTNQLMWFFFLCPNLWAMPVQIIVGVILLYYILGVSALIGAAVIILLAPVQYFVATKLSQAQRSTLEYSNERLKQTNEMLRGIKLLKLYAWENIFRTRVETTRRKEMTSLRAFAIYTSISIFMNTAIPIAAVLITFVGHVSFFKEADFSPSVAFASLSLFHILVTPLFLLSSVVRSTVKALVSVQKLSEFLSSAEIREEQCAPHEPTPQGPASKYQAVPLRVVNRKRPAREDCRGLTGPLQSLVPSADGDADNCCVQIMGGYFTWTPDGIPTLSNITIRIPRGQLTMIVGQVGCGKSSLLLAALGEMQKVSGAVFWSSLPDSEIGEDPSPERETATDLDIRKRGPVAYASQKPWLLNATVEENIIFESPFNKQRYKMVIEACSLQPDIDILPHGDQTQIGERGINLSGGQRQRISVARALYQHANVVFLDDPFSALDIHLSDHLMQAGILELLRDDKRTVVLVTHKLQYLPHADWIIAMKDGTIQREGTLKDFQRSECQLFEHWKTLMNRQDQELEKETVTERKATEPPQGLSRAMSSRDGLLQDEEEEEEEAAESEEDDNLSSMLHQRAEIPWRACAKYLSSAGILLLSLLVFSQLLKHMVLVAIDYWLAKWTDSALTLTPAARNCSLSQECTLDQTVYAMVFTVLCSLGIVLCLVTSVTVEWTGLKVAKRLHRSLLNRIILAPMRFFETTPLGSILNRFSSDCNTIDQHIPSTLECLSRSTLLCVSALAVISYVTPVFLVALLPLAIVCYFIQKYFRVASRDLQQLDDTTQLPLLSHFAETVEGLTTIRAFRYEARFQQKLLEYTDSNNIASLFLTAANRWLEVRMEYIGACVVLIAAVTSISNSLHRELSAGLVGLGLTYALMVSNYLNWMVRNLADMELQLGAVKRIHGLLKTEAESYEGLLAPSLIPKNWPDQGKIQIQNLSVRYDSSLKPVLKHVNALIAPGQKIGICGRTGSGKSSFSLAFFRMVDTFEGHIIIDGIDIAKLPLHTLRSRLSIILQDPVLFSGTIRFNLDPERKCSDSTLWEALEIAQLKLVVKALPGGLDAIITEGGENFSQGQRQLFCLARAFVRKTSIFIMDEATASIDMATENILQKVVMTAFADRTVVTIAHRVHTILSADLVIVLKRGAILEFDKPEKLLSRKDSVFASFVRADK
Sequence of Sulfonylurea receptors; K-ATP channels (Homo sapiens) (Q14654 whole entry, looked up): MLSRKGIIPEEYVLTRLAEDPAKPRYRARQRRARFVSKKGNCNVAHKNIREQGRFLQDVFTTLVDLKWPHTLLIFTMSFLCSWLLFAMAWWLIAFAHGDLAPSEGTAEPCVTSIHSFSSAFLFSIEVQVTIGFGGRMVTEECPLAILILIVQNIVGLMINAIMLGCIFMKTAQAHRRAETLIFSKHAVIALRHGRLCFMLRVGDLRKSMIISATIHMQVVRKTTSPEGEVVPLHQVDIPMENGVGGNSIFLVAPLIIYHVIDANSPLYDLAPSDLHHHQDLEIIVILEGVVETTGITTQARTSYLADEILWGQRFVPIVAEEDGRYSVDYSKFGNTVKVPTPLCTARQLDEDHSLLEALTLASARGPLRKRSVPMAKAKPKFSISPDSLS
Sequence of Sulfonylurea receptors; K-ATP channels (Homo sapiens) (Q15842 whole entry, looked up): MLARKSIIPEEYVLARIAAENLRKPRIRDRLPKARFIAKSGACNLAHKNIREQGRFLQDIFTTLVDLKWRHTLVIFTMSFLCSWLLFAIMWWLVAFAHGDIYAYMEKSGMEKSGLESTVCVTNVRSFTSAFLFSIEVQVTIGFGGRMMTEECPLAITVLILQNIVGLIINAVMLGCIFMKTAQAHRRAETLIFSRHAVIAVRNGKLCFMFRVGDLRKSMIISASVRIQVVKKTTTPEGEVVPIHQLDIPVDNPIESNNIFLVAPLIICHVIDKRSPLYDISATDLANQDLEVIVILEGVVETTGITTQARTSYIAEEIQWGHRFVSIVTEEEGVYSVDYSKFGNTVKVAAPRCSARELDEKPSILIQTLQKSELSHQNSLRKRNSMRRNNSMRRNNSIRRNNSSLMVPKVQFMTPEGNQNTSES

[18] = test system: Receptor-type tyrosine-protein kinase FLT3 (Homo sapiens), P36888 [K663Q]; conditions: Compound concentration 1000.0 nM
[19] = target: RAC-alpha serine/threonine-protein kinase (Homo sapiens) (UniProt P31749); conditions: Compound concentration 1000.0 nM
[20] = target: Mitogen-activated protein kinase kinase kinase 13 (Homo sapiens) (UniProt O43283); conditions: Compound concentration 1000.0 nM
[21] = target: Na+ channel (site 2); sodium channel alpha subunit (family) (Homo sapiens, UniProt P35498+P35499+Q01118+Q14524+Q15858+Q99250+Q9NY46+Q9UI33+Q9UQD0+Q9Y5Y9); assay: Na+ channel (site 2) CEREP ligand profiling; format: protein assay; conditions: compound concentration 10 uM
[22] = test system: Hepatocyte growth factor receptor (Homo sapiens), P08581 [Y1235D]; conditions: Compound concentration 1000.0 nM
[23] = target: Ribosomal protein S6 kinase alpha-3 (Homo sapiens) (UniProt P51812); conditions: Compound concentration 1000.0 nM
[24] = target: Ribosomal protein S6 kinase alpha-6 (Homo sapiens) (UniProt Q9UK32); conditions: Compound concentration 1000.0 nM
[25] = target: 5-hydroxytryptamine receptor 2A (Homo sapiens) (UniProt P28223); conditions: Compound concentration 10.0 uM
Sequence of 5-hydroxytryptamine receptor 2A (Homo sapiens) (P28223 whole entry): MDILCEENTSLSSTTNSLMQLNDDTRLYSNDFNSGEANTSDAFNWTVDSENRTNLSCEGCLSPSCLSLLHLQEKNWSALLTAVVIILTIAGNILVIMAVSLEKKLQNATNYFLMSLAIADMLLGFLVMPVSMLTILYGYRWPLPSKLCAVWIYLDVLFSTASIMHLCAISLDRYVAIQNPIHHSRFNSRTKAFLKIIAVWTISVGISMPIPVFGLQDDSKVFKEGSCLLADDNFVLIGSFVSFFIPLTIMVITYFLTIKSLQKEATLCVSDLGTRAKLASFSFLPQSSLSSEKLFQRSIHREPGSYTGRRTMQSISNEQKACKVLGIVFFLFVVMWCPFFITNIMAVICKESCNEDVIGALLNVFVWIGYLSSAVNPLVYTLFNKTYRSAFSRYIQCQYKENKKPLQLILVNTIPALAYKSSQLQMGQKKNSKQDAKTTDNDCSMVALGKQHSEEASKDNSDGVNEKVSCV

[26] = test system: Epidermal growth factor receptor (Homo sapiens), P00533 [T790M]; conditions: Compound concentration 1000.0 nM
[27] = target: Peroxisome proliferator-activated receptor gamma (Homo sapiens) (UniProt P37231); assay: PPARgamma (h) CEREP ligand profiling; conditions: filed as agonist, Compound concentration 10.0 uM
[28] = target: Fibroblast growth factor receptor 3 (Homo sapiens) (UniProt P22607); conditions: Compound concentration 1000.0 nM
[29] = target: Serine/threonine-protein kinase TAO2 (Homo sapiens) (UniProt Q9UL54); conditions: Compound concentration 1000.0 nM
[30] = target: Muscarinic acetylcholine receptor M3 (Homo sapiens) (UniProt P20309); conditions: Compound concentration 10.0 uM
[31] = test system: Phosphatidylinositol 4,5-bisphosphate 3-kinase catalytic subunit alpha isoform (Homo sapiens), P42336 [H1047L]; conditions: Compound concentration 1000.0 nM
[32] = target: D(1A) dopamine receptor (Homo sapiens) (UniProt P21728); assay: D1 (h) CEREP ligand profiling; conditions: filed as antagonist, Compound concentration 10.0 uM
Sequence of D(1A) dopamine receptor (Homo sapiens) (P21728 whole entry): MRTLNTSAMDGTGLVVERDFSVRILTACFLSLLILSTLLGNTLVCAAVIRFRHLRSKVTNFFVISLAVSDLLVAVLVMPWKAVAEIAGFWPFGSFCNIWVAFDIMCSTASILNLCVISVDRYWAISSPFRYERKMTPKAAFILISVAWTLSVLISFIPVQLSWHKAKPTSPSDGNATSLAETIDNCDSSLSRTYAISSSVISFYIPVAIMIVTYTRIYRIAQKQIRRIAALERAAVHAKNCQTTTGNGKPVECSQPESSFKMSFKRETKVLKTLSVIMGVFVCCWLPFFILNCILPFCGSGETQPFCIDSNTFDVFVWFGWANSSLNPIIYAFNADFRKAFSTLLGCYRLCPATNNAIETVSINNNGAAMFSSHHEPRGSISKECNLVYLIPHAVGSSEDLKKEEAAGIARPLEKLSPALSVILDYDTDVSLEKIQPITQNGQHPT

[33] = target: Serine/threonine-protein kinase 32B (Homo sapiens) (UniProt Q9NY57); conditions: Compound concentration 1000.0 nM
[34] = target: Serine/threonine-protein kinase 4 (Homo sapiens) (UniProt Q13043); conditions: Compound concentration 1000.0 nM
[35] = target: Serine/threonine-protein kinase PRP4 homolog (Homo sapiens) (UniProt Q13523); conditions: Compound concentration 1000.0 nM
[36] = target: Ephrin type-A receptor 3 (Homo sapiens) (UniProt P29320); conditions: Compound concentration 1000.0 nM
[37] = target: Death-associated protein kinase 1 (Homo sapiens) (UniProt P53355); conditions: Compound concentration 1000.0 nM
[38] = target: 5-hydroxytryptamine receptor 2A (Homo sapiens) (UniProt P28223); assay: 5-HT2A (h) CEREP ligand profiling; conditions: filed as antagonist, Compound concentration 10.0 uM
[39] = target: Tyrosine-protein kinase Yes (Homo sapiens) (UniProt P07947); conditions: Compound concentration 1000.0 nM
[40] = target: Protein kinase C eta type (Homo sapiens) (UniProt P24723); conditions: Compound concentration 1000.0 nM
[41] = target: Ephrin type-A receptor 1 (Homo sapiens) (UniProt P21709); conditions: Compound concentration 1000.0 nM
[42] = target: Receptor-type tyrosine-protein kinase FLT3 (Homo sapiens) (UniProt P36888); conditions: Compound concentration 1000.0 nM
[43] = target: Cyclin-dependent kinase 17 (Homo sapiens) (UniProt Q00537); conditions: Compound concentration 1000.0 nM

CNC(=O)Nc1ccc2c(c1)CC[C@@]21OC(=O)N(CC(=O)N(Cc2ccc(F)cc2)[C@@H](C)C(F)(F)F)C1=O [A-485]
residual activity [1]: 100%
residual activity [2]: 90%
residual activity [3]: 100%
residual activity [4]: 100%
residual activity [5]: 100%
residual activity [6]: 90%
Ki ([7]; read-out: Ki): 5.53 µM
Ki ([7]; read-out: pKi (converted)): 5.13 µM
residual activity [8]: 100%
residual activity [9]: 90%
residual activity [10]: 79%
residual activity [11]: 99%
residual activity [12]: 100%
residual activity [13]: 97%
residual activity [14]: 82%
residual activity [15]: 95%
residual activity [16]: 96%
inhibition [17]: 24%
residual activity [18]: 100%
residual activity [19]: 91%
residual activity [20]: 68%
inhibition at 10 µM [21]: 19% (not active)
residual activity [22]: 81%
residual activity [23]: 87%
residual activity [24]: 84%
inhibition [25]: 34.6%
residual activity [26]: 73%
inhibition [27]: 10%
residual activity [28]: 82%
residual activity [29]: 91%
inhibition [30]: 9.06%
residual activity [31]: 95%
inhibition [32]: -4%
residual activity [33]: 90%
residual activity [34]: 100%
residual activity [35]: 86%
residual activity [36]: 100%
residual activity [37]: 96%
inhibition [38]: 14%
residual activity [39]: 76%
residual activity [40]: 93%
residual activity [41]: 88%
residual activity [42]: 100%
residual activity [43]: 96%

CNC(=O)Nc1ccc2c(c1)[C@@]1(CC2)OC(=O)N(CC(=O)N(Cc2ccc(F)cc2)[C@@H](C)C(F)(F)F)C1=O [A-486]
residual activity [1]: 59%
residual activity [2]: 100%
residual activity [3]: 100%
residual activity [4]: 96%
residual activity [5]: 100%
residual activity [6]: 100%
Ki ([7]; read-out: Ki): 3.27 µM
residual activity [8]: 100%
residual activity [9]: 100%
residual activity [10]: 71%
residual activity [11]: 100%
residual activity [12]: 100%
residual activity [13]: 74%
residual activity [14]: 100%
residual activity [15]: 100%
residual activity [16]: 0%
inhibition [17]: 19%
residual activity [18]: 84%
residual activity [19]: 77%
residual activity [20]: 100%
inhibition at 10 µM [21]: -5% (not active)
residual activity [22]: 93%
residual activity [23]: 84%
residual activity [24]: 100%
inhibition [25]: 26.6%
residual activity [26]: 73%
inhibition [27]: 1%
residual activity [28]: 92%
residual activity [29]: 95%
inhibition [30]: 8.23%
residual activity [31]: 96%
inhibition [32]: -5%
residual activity [33]: 67%
residual activity [34]: 100%
residual activity [35]: 90%
residual activity [36]: 100%
residual activity [37]: 100%
inhibition [38]: 8%
residual activity [39]: 85%
residual activity [40]: 87%
residual activity [41]: 100%
residual activity [42]: 96%
residual activity [43]: 88%
